Test [1] has as its target T1, T1R2/T1R3 taste receptor (Homo sapiens, UniProt Q8TE23).
T1 sequence (Q8TE23 20-839): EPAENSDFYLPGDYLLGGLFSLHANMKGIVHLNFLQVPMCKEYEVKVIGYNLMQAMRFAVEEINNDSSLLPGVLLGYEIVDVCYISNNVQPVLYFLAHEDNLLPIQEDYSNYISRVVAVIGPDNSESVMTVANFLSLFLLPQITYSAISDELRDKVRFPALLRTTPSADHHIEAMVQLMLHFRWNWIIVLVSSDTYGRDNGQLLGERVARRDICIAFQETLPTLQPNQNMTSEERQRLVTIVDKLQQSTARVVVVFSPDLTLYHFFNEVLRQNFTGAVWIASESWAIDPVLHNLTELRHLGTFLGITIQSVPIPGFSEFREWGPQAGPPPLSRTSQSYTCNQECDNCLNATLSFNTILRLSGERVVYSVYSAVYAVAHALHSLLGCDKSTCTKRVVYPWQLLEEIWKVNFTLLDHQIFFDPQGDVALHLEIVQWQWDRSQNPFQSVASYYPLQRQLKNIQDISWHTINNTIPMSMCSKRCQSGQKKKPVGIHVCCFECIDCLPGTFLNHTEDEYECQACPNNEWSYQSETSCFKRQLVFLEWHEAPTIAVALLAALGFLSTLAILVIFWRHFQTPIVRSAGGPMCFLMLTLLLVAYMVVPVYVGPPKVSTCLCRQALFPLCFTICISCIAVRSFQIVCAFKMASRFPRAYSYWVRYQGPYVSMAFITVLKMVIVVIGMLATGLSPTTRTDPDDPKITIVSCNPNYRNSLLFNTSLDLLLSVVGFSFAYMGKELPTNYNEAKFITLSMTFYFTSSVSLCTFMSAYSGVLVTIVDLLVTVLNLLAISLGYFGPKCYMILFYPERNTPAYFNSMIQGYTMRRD
T1 sequence (Q7RTX0 21-852 partner): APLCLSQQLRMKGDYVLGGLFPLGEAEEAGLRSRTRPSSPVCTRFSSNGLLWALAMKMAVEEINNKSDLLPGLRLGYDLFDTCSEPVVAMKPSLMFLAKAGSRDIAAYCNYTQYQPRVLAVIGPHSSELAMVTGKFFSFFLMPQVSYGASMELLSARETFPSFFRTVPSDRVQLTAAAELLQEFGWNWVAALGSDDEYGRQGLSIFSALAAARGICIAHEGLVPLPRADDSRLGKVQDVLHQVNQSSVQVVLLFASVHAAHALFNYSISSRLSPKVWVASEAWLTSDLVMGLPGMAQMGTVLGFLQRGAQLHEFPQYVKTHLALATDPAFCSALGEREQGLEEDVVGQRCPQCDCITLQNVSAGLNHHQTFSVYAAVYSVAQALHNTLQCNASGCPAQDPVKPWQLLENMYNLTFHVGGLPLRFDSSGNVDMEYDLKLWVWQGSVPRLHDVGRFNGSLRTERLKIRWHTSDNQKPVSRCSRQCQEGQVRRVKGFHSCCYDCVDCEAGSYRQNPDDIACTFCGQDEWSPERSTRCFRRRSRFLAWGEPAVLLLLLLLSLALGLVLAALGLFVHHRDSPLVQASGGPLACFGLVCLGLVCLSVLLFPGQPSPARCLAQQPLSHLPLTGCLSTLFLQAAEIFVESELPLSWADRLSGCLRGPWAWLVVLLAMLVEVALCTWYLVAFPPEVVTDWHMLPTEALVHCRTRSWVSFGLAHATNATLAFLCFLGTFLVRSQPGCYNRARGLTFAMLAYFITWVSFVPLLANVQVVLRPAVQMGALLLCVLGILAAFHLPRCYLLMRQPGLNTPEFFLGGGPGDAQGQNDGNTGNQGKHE
In words: Receptor-based assay: sweetener EC50 alone and with test compound (enhancement ratio). The format is cell-based. The conditions noted are these: for Sucrose Enhancement EC50 Ratio: sweetener sucrose. The method, boiled down:
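Sucrose, sucralose or fructose EC50 measured on human T1R2/T1R3, alone and with 3, 10 or 50 μM test compound. Enhancement is the EC50 ratio without/with compound, binned A >20, B 10-20, C >1 to <10.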

Test [2] is described as follows: Sensory experiments: paired comparison of sweetener alone vs sweetener plus test compound. Particulars: panelists. Format: in vivo, human. The procedure:
(§1) Test samples containing either a sweetener (sucrose or high-fructose corn syrup) alone or in combination with a test compound were presented in pairs to a group of panelists who were asked to determine which of the samples was sweeter. Subjects refrained from eating or drinking (except water) for at least 1 hour prior to the test. Subjects rinsed with water several times to clean the mouth. The samples within a paired comparison test were presented in a randomized, counterbalanced order. Panelists had up to a 1 minute delay between taste tests to clear the mouth of any tastes. Binomial probability tables were used to determine the probability of the correct number of responses occurring for each test at alpha-0.05.
Stock solutions of test compounds were prepared at 1000× final concentration with ethanol to ensure dispersion in solution. Test compound samples including sucrose were prepared by diluting the stock solutions in a low sodium buffer (0.952 g of KCl, 5.444 g of Na2HPO4, and 0.952 g of KH2PO4 in deionized ultrafiltered water) at pH 7.1 and containing sucrose. Test compound samples including high fructose corn syrup were prepared by diluting the stock solutions in the low sodium buffer at pH 2.8 (using citric acid to adjust the pH) and containing high fructose corn syrup. Control samples were balanced to 0.1% ethanol final. […]

Test [3] is described as follows: Sensory evaluation of inherent sweetness of test compound. Format: in vivo, human. Particulars: test compound alone at 10 ppm. On the procedure: as §1
Stock solutions of test compounds were prepared at 1000× final concentration with ethanol to ensure dispersion in solution. Test compound samples including sucrose were prepared by diluting the stock solutions in a low sodium buffer (0.952 g of KCl, 5.444 g of Na2HPO4, and 0.952 g of KH2PO4 in deionized ultrafiltered water) at pH 7.1 and containing sucrose. Test compound samples including high fructose corn syrup were prepared by diluting the stock solutions in the low sodium buffer at pH 2.8 (using citric acid to adjust the pH) and containing high fructose corn syrup. Control samples were balanced to 0.1% ethanol final.
Compound 200 was also tested for inherent sweetness. […]

Molecules are shown by their SMILES. Some results are limits rather than exact numbers.

As to `CC(C)(COc1cccc2c1C(N)=NS(=O)(=O)N2)Nc1ccnc(-n2ccnc2)n1` [Compound 200, 4-amino-5-(2-((2-(1H-imidazol-1-yl)pyrimidin-4-yl)amino)-2-methylpropoxy)1H-benzo[c][1,2,6]thiadiazine 2,2-dioxide], in test [1] (sweetener sucralose, 10 μM test compound), the “Sucralose Enhancement EC50 Ratio” value is listed as “A (An “A” value indicates an enhancement ratio of greater than 20)”. In addition, the “Sucrose Enhancement EC50 Ratio” value in test [1] (3 μM test compound) was “C (A “C” value indicates an enhancement ratio greater than 1 and less than 10)”; in test [1] (10 μM test compound), “C (A “C” value indicates an enhancement ratio greater than 1 and less than 10)”; in test [1] (50 μM test compound), “C (A “C” value indicates an enhancement ratio greater than 1 and less than 10)”. In addition, the “sweetness intensity of the combination of test compound and 6% HFCS, compared with HFCS-alone” value in test [2] (test compound at 10 ppm or less with 6% HFCS, low sodium buffer pH 2.8) is given as “greater than 6 % HFCS”. Further, the “Equivalent Sucrose Conc.” value in test [2] (test compound at 10 ppm or less with 6% sucrose, low sodium buffer pH 7.1) was “A (An “A” value indicates an equivalent sucrose concentration of 10% or greater)”. For the same compound, in test [3], the “inherent sweetness intensity, compared with sucrose solution” value was under 1.5 % sucrose.

For the origin of these results see patent US11945813B2, “5-substituted 4-amino-1H-benzo[c][1,2,6]thiadiazine 2,2-dioxides and formulations and uses thereof” (Firmenich Incorporated, priority 2018, dated 2024).
